Measurements published in patent publication US20250154134A1, “COMPOUND AS FAK INHIBITOR AND USE THEREOF” (WIGEN BIOMEDICINE TECHNOLOGY (SHANGHAI) CO., LTD., priority 2022, published 2025).

Assays:
FAK recombinant protein = FAK recombinant protein (Homo sapiens (Human), UniProt Q05397); experiment: Inhibitory activity against FAK enzyme (HTRF, TK substrate); type: biochemical
Protocol: A compound serially diluted with DMSO was mixed with a FAK recombinant protein. After the mixture was left to stand at room temperature for 10 min, a biotin-labeled TK substrate (TK) and ATP were added. […] The inhibition percentage and IC50 of the compound were calculated compared to the DMSO control group.

PC3 cells [1] = experiment: PC3 cell proliferation, 2D activity assay (Cell Titer-Lumi, 72 h); type: cell-based, human; conditions: Homo sapiens, PC-3, read-out: 2D inhibitory activity against PC3 cells IC50
PC3 cells [2] = experiment: PC3 cell proliferation, 3D activity assay (3D culture, 14 days); type: cell-based, human; conditions: Homo sapiens, PC-3, 336 h, read-out: 3D inhibitory activity against PC3 cells IC50

Chain of FAK recombinant protein (Q05397 whole entry): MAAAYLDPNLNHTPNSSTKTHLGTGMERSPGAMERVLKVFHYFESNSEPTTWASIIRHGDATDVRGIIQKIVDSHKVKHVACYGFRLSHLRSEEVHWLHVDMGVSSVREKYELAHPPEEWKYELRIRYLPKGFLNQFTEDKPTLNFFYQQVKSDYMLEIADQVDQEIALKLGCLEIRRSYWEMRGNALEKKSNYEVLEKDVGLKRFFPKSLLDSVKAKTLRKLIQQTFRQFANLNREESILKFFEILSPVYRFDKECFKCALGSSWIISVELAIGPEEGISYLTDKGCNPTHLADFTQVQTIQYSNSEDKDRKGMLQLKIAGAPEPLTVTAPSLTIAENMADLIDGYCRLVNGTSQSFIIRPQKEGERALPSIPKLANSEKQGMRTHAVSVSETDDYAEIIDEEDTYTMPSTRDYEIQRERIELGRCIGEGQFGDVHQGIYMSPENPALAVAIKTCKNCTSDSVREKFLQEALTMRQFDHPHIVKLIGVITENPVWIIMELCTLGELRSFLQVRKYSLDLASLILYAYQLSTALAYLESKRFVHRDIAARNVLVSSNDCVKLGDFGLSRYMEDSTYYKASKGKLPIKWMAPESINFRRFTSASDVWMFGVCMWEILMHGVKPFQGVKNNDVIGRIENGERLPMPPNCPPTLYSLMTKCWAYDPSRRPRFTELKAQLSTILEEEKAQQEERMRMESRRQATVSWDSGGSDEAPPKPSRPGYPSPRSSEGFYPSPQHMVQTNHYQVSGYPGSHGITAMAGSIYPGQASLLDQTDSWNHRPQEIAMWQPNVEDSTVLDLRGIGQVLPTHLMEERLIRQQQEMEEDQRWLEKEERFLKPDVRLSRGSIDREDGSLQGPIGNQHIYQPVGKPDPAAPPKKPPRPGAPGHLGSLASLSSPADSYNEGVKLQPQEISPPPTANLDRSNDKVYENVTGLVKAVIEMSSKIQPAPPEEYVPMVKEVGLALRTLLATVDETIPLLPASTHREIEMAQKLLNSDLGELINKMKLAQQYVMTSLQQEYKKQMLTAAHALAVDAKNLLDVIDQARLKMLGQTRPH

| IC50 (FAK recombinant protein) | IC50 (PC3 cells [1]) | IC50 (PC3 cells [2]) | Structure (SMILES) |
| --- | --- | --- | --- |
| < 20 nM | > 2000 nM | < 5 nM | CCN1CCC(NC(=O)c2ccc(Nc3ncc(C(F)(F)F)c(Oc4cccc5c4C(=O)N(C)C54CC4)n3)c(OC)c2)CC1 [Compound 37] |
| < 20 nM | > 2000 nM | < 5 nM | COCCN1CCN(c2cc(OC)c(Nc3ncc(Br)c(Oc4cccc5c4C(=O)N(C)C54CC4)n3)cc2F)CC1 [Compound 186] |
| < 20 nM | > 2000 nM | 5 to 50 nM | COc1cc(C(=O)NC2CCC3(CCN(C)CC3)C2)ccc1Nc1ncc(C(F)(F)F)c(Oc2cccc3c2C(=O)N(C)C32CC2)n1 (stereo not drawn) [Compound 19] |
| < 20 nM | > 2000 nM | < 5 nM | COCCN1CCN(c2cc(OC)c(Nc3ncc(C(F)(F)F)c(Oc4cccc5c4C(=O)N(C)C54CC4)n3)cc2F)CC1 [Compound 123] |
| < 20 nM | > 2000 nM | < 5 nM | COc1cc(N2CCN(CC(=O)N(C)C)CC2)ccc1Nc1ncc(Cl)c(Oc2cccc3c2C(=O)N(C)C32CC2)n1 [Compound 144] |
| < 20 nM | > 2000 nM | 5 to 50 nM | COc1cc(N2CCN(C)CC2=O)c(F)cc1Nc1ncc(C(F)(F)F)c(Oc2cccc3c2C(=O)N(C)C32CC2)n1 [Compound 129] |
| < 20 nM | > 2000 nM | > 50 nM | COc1cc(C(=O)NC2CCN(C)CC2)c(F)cc1Nc1ncc(Cl)c(Oc2cccc3c2C(=O)N(C)C32COC2)n1 [Compound 218] |
| < 20 nM | > 2000 nM | < 5 nM | COc1cc(C(=O)NC2CCC23CCN(C)CC3)c(F)cc1Nc1ncc(C(F)(F)F)c(Oc2cccc3c2C(=O)N(C)C32CC2)n1 (stereo not drawn) [Compound 12] |
| < 20 nM | > 2000 nM | < 5 nM | CCc1cc(C(=O)NC2CC3(CCN(C)CC3)C2)ccc1Nc1ncc(C(F)(F)F)c(Oc2cccc3c2C(=O)N(C)C32CC2)n1 [Compound 52] |
| < 20 nM | > 2000 nM | < 5 nM | COc1cc(C(=O)NC2CCC3(CC2)CCN3C)c(F)cc1Nc1ncc(C(F)(F)F)c(Oc2cccc3c2C(=O)N(C)C32CC2)n1 (stereo not drawn) [Compound 14] |
| < 20 nM | > 2000 nM | < 5 nM | COc1cc(C(=O)NC2CCN(C)CC2OC)ccc1Nc1ncc(C(F)(F)F)c(Oc2cccc3c2C(=O)N(C)C32CC2)n1 (stereo not drawn) [Compound 34] |
| < 20 nM | > 2000 nM | < 5 nM | COc1cc(N2CCC3(CCN(C)CC3)CC2)ccc1Nc1ncc(Br)c(Oc2cccc3c2C(=O)N(C)C32CC2)n1 [Compound 189] |
| < 20 nM | > 2000 nM | 5 to 50 nM | CN1CCC(n2ccc(Nc3ncc(C(F)(F)F)c(Oc4cccc5c4C(=O)N(C)C54CC4)n3)n2)CC1 [Compound 97] |
| < 20 nM | > 2000 nM | 5 to 50 nM | COc1cc(N2CCC3C(CCN3C)C2)ccc1Nc1ncc(Cl)c(Oc2cccc3c2C(=O)N(C)C32CC2)n1 (stereo not drawn) [Compound 167] |
| < 20 nM | > 2000 nM | < 5 nM | COc1cc(C(=O)NC2CCC3(CC2)CCN3C)ccc1Nc1ncc(C(F)(F)F)c(Oc2cccc3c2C(=O)N(C)C32CC2)n1 (stereo not drawn) [Compound 15] |
| < 20 nM | > 2000 nM | < 5 nM | COc1cc(N2CCC3(CC2)CN(C)C3)ccc1Nc1ncc(Cl)c(Oc2cccc3c2C(=O)N(C)C32CC2)n1 [Compound 149] |
| < 20 nM | > 2000 nM | > 50 nM | COc1cc(C(=O)NC2CCN(C)CC2)c(F)cc1Nc1ncc(Cl)c(Oc2cccc3c2C(=O)N(C)C32CCOCC2)n1 [Compound 215] |
| < 20 nM | > 2000 nM | 5 to 50 nM | COc1cc(C(=O)NC2CC3(CCN(C)CC3)C2)c(F)cc1Nc1ncc(C(F)(F)F)c(Cc2cccc3c2C(=O)N(C)C32CC2)n1 [Compound 102] |
| < 20 nM | > 2000 nM | 5 to 50 nM | COc1cc(N2CC(N3CC(N(C)C)C3)C2)ccc1Nc1ncc(Cl)c(Oc2cccc3c2C(=O)N(C)C32CC2)n1 [Compound 158] |
| < 20 nM | > 2000 nM | 5 to 50 nM | COc1cc2c(cc1Nc1ncc(C(F)(F)F)c(Oc3cccc4c3C(=O)N(C)C43CC3)n1)CN(C)CC2 [Compound 86] |
| < 20 nM | > 2000 nM | < 5 nM | COc1cc(C(=O)NC2CCN(C)CC2)c(F)cc1Nc1ncc(Br)c(Oc2cccc3c2C(=O)N(C)C32CC2)n1 [Compound 174, 4-((5-bromo-4-((2′-methyl-3′-oxospiro[cyclopropane-1,1′-isoindolin]-4′-yl)oxy)pyrimidin-2-yl)amino)-2-fluoro-5-methoxy-N-(1-methylpiperidin-4-yl)benzamide] |

| IC50 (FAK recombinant protein) | IC50 (PC3 cells [1]) | IC50 (PC3 cells [2]) | Structure (SMILES) |
| --- | --- | --- | --- |
| < 20 nM | > 2000 nM | 5 to 50 nM | COc1cc(C(=O)NC2CCN3CCN(C)C3C2)ccc1Nc1ncc(C(F)(F)F)c(Oc2cccc3c2C(=O)N(C)C32CC2)n1 (stereo not drawn) [Compound 28] |
| < 20 nM | > 2000 nM | < 5 nM | COc1cc(C(=O)NC2COC3(CCN(C)C3)C2)c(F)cc1Nc1ncc(C(F)(F)F)c(Oc2cccc3c2C(=O)N(C)C32CC2)n1 (stereo not drawn) [Compound 26] |
| < 20 nM | > 2000 nM | > 50 nM | COc1cc(N2CC3(CCC2=O)CCN(C)CC3)ccc1Nc1ncc(C(F)(F)F)c(Oc2cccc3c2C(=O)N(C)C32CC2)n1 [Compound 66] |
| < 20 nM | > 2000 nM | 5 to 50 nM | COc1cc(C(=O)NC2CCC3(CC2)CCN(C)CC3)c(F)cc1Nc1ncc(C(F)(F)F)c(Oc2cccc3c2C(=O)N(C)C32CC2)n1 [Compound 22] |
| < 20 nM | > 2000 nM | 5 to 50 nM | COc1cc(N2CCC(N(C)C)CC2)c(F)cc1Nc1ncc(Br)c(Oc2cccc3c2C(=O)N(C)C32CC2)n1 [Compound 191] |
| < 20 nM | > 2000 nM | < 5 nM | COc1cc(N2CCC(N3CCN(C)CC3)CC2)ccc1Nc1ncc(Br)c(Oc2cccc3c2C(=O)N(C)C32CC2)n1 [Compound 182] |
| < 20 nM | > 2000 nM | < 5 nM | COc1cc(N2CCC3(CCN(C)C3)C2)c(F)cc1Nc1ncc(C(F)(F)F)c(Oc2cccc3c2C(=O)N(C)C32CC2)n1 (stereo not drawn) [Compound 127] |
| < 20 nM | > 2000 nM | < 5 nM | COc1cc(N2CCC(N3CCN(C)CC3)CC2)ccc1Nc1ncc(C#N)c(Oc2cccc3c2C(=O)N(C)C32CC2)n1 [Compound 200] |
| < 20 nM | > 2000 nM | < 5 nM | COCCN1CCN(c2ccc(Nc3ncc(Cl)c(Oc4cccc5c4C(=O)N(C)C54CC4)n3)c(OC)c2)CC1 [Compound 142] |
| < 20 nM | > 2000 nM | < 5 nM | COc1cc(N2CC(N3CCN(C)CC3)C2)ccc1Nc1ncc(Cl)c(Oc2cccc3c2C(=O)N(C)C32CC2)n1 [Compound 157, 4′-((5-chloro-2-((2-methoxy-4-(3-(4-methylpiperazin-1-yl)azetidin-1-yl)phenyl)amino)pyrimidin-4-yl)oxy)-2′-methylspiro[cyclopropane-1,1′-isoindolin]-3′-one] |
| < 20 nM | > 2000 nM | 5 to 50 nM | COc1cc(C(=O)NC2CCC3(CC2)CN(C)C3)ccc1Nc1ncc(C(F)(F)F)c(Oc2cccc3c2C(=O)N(C)C32CC2)n1 [Compound 11] |
| < 20 nM | > 2000 nM | 5 to 50 nM | COc1cc(CN2CCCC2)ccc1Nc1ncc(C(F)(F)F)c(Oc2cccc3c2C(=O)N(C)C32CC2)n1 [Compound 81] |
| < 20 nM | > 2000 nM | 5 to 50 nM | COc1cc(C(=O)NC2CCC3(CC2)CCN(C)CC3)ccc1Nc1ncc(C(F)(F)F)c(Oc2cccc3c2C(=O)N(C)C32CC2)n1 [Compound 23] |
| < 20 nM | > 2000 nM | 5 to 50 nM | COc1cc(C(=O)NC2CCN(C)CC2)ccc1Nc1ncc(Br)c(Oc2cccc3c2C(=O)N(C)C32CC2)n1 [Compound 116] |
| < 20 nM | > 2000 nM | 5 to 50 nM | CNC(=O)c1ccc(Nc2ncc(C(F)(F)F)c(Oc3cccc4c3C(=O)N(C)C43CC3)n2)c(OC)c1 [Compound 2] |
| < 20 nM | > 2000 nM | < 5 nM | COc1cc(C(=O)NC2CC3(CCN(C)CC3)C2)c(F)cc1Nc1ncc(Cl)c(Oc2cccc3c2C(=O)N(C)C32CCC2)n1 [Compound 204] |
| < 20 nM | > 2000 nM | < 5 nM | COc1cc(N2CCN(CC(=O)N(C)C)CC2)c(F)cc1Nc1ncc(C(F)(F)F)c(Oc2cccc3c2C(=O)N(C)C32CC2)n1 [Compound 124] |
| < 20 nM | > 2000 nM | 5 to 50 nM | COc1cc(N2CC3(CCN(C)C3)OCC2=O)ccc1Nc1ncc(C(F)(F)F)c(Oc2cccc3c2C(=O)N(C)C32CC2)n1 (stereo not drawn) [Compound 67] |
| < 20 nM | > 2000 nM | < 5 nM | CN1C(=O)c2c(Oc3nc(Nc4cc5n(n4)CCOC5)ncc3C(F)(F)F)cccc2C12CC2 [Compound 94] |
| < 20 nM | > 2000 nM | > 50 nM | CN1C(=O)c2c(Oc3nc(Nc4ccc5c(c4)CNC5=O)ncc3C(F)(F)F)cccc2C12CC2 [Compound 70] |
| < 20 nM | > 2000 nM | 5 to 50 nM | COc1cc(N2CC3(CCN(C)CC3)C2)ccc1Nc1ncc(Cl)c(Oc2cccc3c2C(=O)N(C)C32CCCC2)n1 [Compound 207] |

| Structure (SMILES) | IC50 (FAK recombinant protein) | IC50 (PC3 cells [1]) | IC50 (PC3 cells [2]) |
| --- | --- | --- | --- |
| COc1cc(N2CC3CC(C2)N3C)ccc1Nc1ncc(Cl)c(Oc2cccc3c2C(=O)N(C)C32CC2)n1 [Compound 165] | < 20 nM | > 2000 nM | 5 to 50 nM |
